In ChEMBL document CHEMBL4715829, “Heterodimeric Rifampicin-Tobramycin conjugates break intrinsic resistance of Pseudomonas aeruginosa to doxycycline and chloramphenicol in vitro and in a Galleria mellonella in vivo model” (Eur J Med Chem, 2019):

How the values were obtained:
Type in all cases: functional
Pseudomonas aeruginosa [1] = test: Antibacterial activity against Pseudomonas aeruginosa 264-101354 assessed as reduction in bacterial growth by measuring doxycycline MIC at 8 ug/ml incubated for 18 hrs in presence of doxycycline by broth microdilution assay (reference value: 64 ug/ml); conditions: dose 8 µg/ml
Pseudomonas aeruginosa [2] = test: Antibacterial activity against Pseudomonas aeruginosa 259-96918 assessed as fractional inhibitory concentration incubated for 18 hrs in presence of doxycycline by broth microdilution assay
Pseudomonas aeruginosa [3] = test: Antibacterial activity against Pseudomonas aeruginosa 260-97103 assessed as reduction in bacterial growth by measuring chloramphenicol MIC at 8 ug/ml incubated for 18 hrs in presence of chloramphenicol by broth microdilution assay (reference value: 128 ug/ml); conditions: dose 8 µg/ml
Pseudomonas aeruginosa [4] = test: Antibacterial activity against Pseudomonas aeruginosa 260-97103 assessed as reduction in bacterial growth by measuring doxycycline MIC at 8 ug/ml incubated for 18 hrs in presence of doxycycline by broth microdilution assay (reference value: 16 ug/ml); conditions: dose 8 µg/ml
Pseudomonas aeruginosa [5] = test: Antibacterial activity against Pseudomonas aeruginosa 91433 assessed as fractional inhibitory concentration incubated for 18 hrs in presence of minocycline by broth microdilution assay
Pseudomonas aeruginosa [6] = test: Antibacterial activity against Pseudomonas aeruginosa 114228 assessed as fractional inhibitory concentration incubated for 18 hrs in presence of tigecycline by broth microdilution assay
Pseudomonas aeruginosa [7] = test: Antibacterial activity against Pseudomonas aeruginosa 260-97103 assessed as fractional inhibitory concentration incubated for 18 hrs in presence of rifampicin by broth microdilution assay
Pseudomonas aeruginosa [8] = test: Potentiation of doxycycycline-induced bactericidal activity against Pseudomonas aeruginosa PAO1 assessed as bacterial viability at 9.8 microM incubated for 9 hrs in LB medium in presence of doxycycline followed by plating on agar plate and measured after 20 hrs by time-kill assay; conditions: time 29 hrs
Pseudomonas aeruginosa [9] = test: Potentiation of chloramphenicol-induced antibacterial activity against Pseudomonas aeruginosa 264-101354 assessed as fold change in chloramphenicol MIC at 9.8 uM incubated for 18 hrs in presence of chloramphenicol by broth microdilution assay relative to control
Pseudomonas aeruginosa [10] = test: Antibacterial activity against Pseudomonas aeruginosa 260-97103 assessed as fractional inhibitory concentration incubated for 18 hrs in presence of minocycline by broth microdilution assay
Pseudomonas aeruginosa [11] = test: Potentiation of doxycycline-induced antibacterial activity against Pseudomonas aeruginosa 100036 assessed as fold change in doxycycline MIC at 9.8 uM incubated for 18 hrs in presence of doxycycline by broth microdilution assay relative to control
Pseudomonas aeruginosa [12] = test: Antibacterial activity against Pseudomonas aeruginosa 260-97103 infected in Galleria mellonella larvae assessed as survival of larvae at 100 mg/kg treated at 3 hrs post-infection in presence of chloramphenicol and measured after 24 hrs relative to control
Pseudomonas aeruginosa [13] = test: Antibacterial activity against Pseudomonas aeruginosa 262-101856 assessed as potentiation of doxycycline-induced antibacterial activity by measuring doxycycline MIC at 9.8 uM incubated for 18 hrs in presence of doxycycline by broth microdilution assay (reference value: 1024 ug/ml)
Pseudomonas aeruginosa [14] = test: Antibacterial activity against Pseudomonas aeruginosa 260-97103 infected in Galleria mellonella larvae assessed as mortality of larvae at 100 mg/kg administered at 3 hrs post-infection and measured every 6 hrs for 36 hrs
Klebsiella pneumoniae = test: Potentiation of chloramphenicol-induced antibacterial activity against Klebsiella pneumoniae ATCC 16381 assessed as fold change in chloramphenicol MIC at 9.8 uM incubated for 18 hrs in presence of chloramphenicol by broth microdilution assay relative to control
Pseudomonas aeruginosa [15] = test: Antibacterial activity against Pseudomonas aeruginosa 114228 assessed as fractional inhibitory concentration incubated for 18 hrs in presence of rifampicin by broth microdilution assay
Pseudomonas aeruginosa [16] = test: Potentiation of doxycycline-induced antibacterial activity against Pseudomonas aeruginosa 260-97103 assessed as fold change in doxycycline MIC at 9.8 uM incubated for 18 hrs in presence of doxycycline by broth microdilution assay relative to control
Pseudomonas aeruginosa [17] = test: Antibacterial activity against Pseudomonas aeruginosa 114228 assessed as potentiation of doxycycline-induced antibacterial activity by measuring doxycycline MIC at 9.8 uM incubated for 18 hrs in presence of doxycycline by broth microdilution assay (reference value: 32 ug/ml)
Pseudomonas aeruginosa [18] = test: Antibacterial activity against Pseudomonas aeruginosa 91433 assessed as fractional inhibitory concentration incubated for 18 hrs in presence of tigecycline by broth microdilution assay
Pseudomonas aeruginosa [19] = test: Antibacterial activity against Pseudomonas aeruginosa 259-96918 assessed as fractional inhibitory concentration incubated for 18 hrs in presence of rifampicin by broth microdilution assay
Pseudomonas aeruginosa [20] = test: Antibacterial activity against Pseudomonas aeruginosa 264-101354 assessed as fractional inhibitory concentration index incubated for 18 hrs in presence of minocycline by broth microdilution assay
Acinetobacter baumannii = test: Potentiation of chloramphenicol-induced antibacterial activity against Acinetobacter baumannii ATCC 17978 assessed as fold change in chloramphenicol MIC at 7.6 uM incubated for 18 hrs in presence of chloramphenicol by broth microdilution assay relative to control
Pseudomonas aeruginosa [21] = test: Potentiation of chloramphenicol-induced antibacterial activity against Pseudomonas aeruginosa 114228 assessed as fold change in chloramphenicol MIC at 7.6 uM incubated for 18 hrs in presence of chloramphenicol by broth microdilution assay relative to control
Pseudomonas aeruginosa [22] = test: Potentiation of doxycycline-induced antibacterial activity against Pseudomonas aeruginosa 264-101354 assessed as fold change in doxycycline MIC at 7.6 uM incubated for 18 hrs in presence of doxycycline by broth microdilution assay relative to control
Enterobacter cloacae = test: Potentiation of doxycycline-induced antibacterial activity against Enterobacter cloacae ATCC 117029 assessed as fold change in doxycycline MIC at 7.6 uM incubated for 18 hrs in presence of doxycycline by broth microdilution assay relative to control
Pseudomonas aeruginosa [23] = test: Antibacterial activity against Pseudomonas aeruginosa 260-97103 assessed as potentiation of chloramphenicol-induced antibacterial activity by measuring chloramphenicol MIC at 7.6 uM incubated for 18 hrs in presence of chloramphenicol by broth microdilution assay (reference value: 128 ug/ml)
Pseudomonas aeruginosa [24] = test: Potentiation of chloramphenicol-induced antibacterial activity against Pseudomonas aeruginosa 264-101354 assessed as fold change in chloramphenicol MIC at 7.6 uM incubated for 18 hrs in presence of chloramphenicol by broth microdilution assay relative to control
Pseudomonas aeruginosa [25] = test: Antibacterial activity against Pseudomonas aeruginosa 259-96918 assessed as potentiation of doxycycline-induced antibacterial activity by measuring doxycycline MIC at 7.6 uM incubated for 18 hrs in presence of doxycycline by broth microdilution assay (reference value: 32 ug/ml)
Pseudomonas aeruginosa [26] = test: Antibacterial activity against Pseudomonas aeruginosa 100036 assessed as potentiation of chloramphenicol-induced antibacterial activity by measuring chloramphenicol MIC at 7.6 uM incubated for 18 hrs in presence of chloramphenicol by broth microdilution assay (reference value: 1024 ug/ml)
Pseudomonas aeruginosa [27] = test: Antibacterial activity against Pseudomonas aeruginosa 100036 assessed as reduction in bacterial growth by measuring doxycycline MIC at 4 ug/ml incubated for 18 hrs in presence of doxycycline by broth microdilution assay (reference value: 64 ug/ml); conditions: dose 4 µg/ml

Structure (SMILES): NC[C@H]1O[C@H](O[C@H]2[C@H](O)[C@@H](O[C@H]3O[C@H](CO)[C@@H](O)[C@H](N)[C@H]3O)[C@H](N)C[C@@H]2N)[C@H](N)C[C@@H]1O [TOBRAMYCIN]
- MIC (Pseudomonas aeruginosa [1]): 64 µg/mL
- FIC (Pseudomonas aeruginosa [2]): 0.125
- MIC (Pseudomonas aeruginosa [3]): 128 µg/mL
- MIC (Pseudomonas aeruginosa [4]): 16 µg/mL

Structure (SMILES): CO[C@H]1/C=C/O[C@@]2(C)Oc3c(C)c(O)c4c(O)c(c(/C=N/N5CCN(Cc6cn(CCCCCCO[C@@H]7[C@@H](O[C@H]8O[C@H](CO)[C@@H](O)[C@H](N)[C@H]8O)[C@H](N)C[C@H](N)[C@H]7O[C@H]7O[C@H](CN)[C@@H](O)C[C@H]7N)nn6)CC5)c(O)c4c3C2=O)NC(=O)/C(C)=C\C=C\[C@H](C)[C@H](O)[C@@H](C)[C@@H](O)[C@@H](C)[C@H](OC(C)=O)[C@@H]1C.Cl.Cl.Cl.Cl.Cl
- FIC (Pseudomonas aeruginosa [5]): <0.125
- FIC (Pseudomonas aeruginosa [6]): <0.031
- FIC (Pseudomonas aeruginosa [7]): <0.125
- Activity (Pseudomonas aeruginosa [8]): <10 CFU/ml
- fold change (FC) (Pseudomonas aeruginosa [9]): 4
- FIC (Pseudomonas aeruginosa [10]): <0.125
- fold change (FC) (Pseudomonas aeruginosa [11]): 4
- survival at 100 mg/kg (Pseudomonas aeruginosa [12]): 45%
- MIC (Pseudomonas aeruginosa [13]): 8 µg/mL
- mortality at 100 mg/kg (Pseudomonas aeruginosa [14]): 100%
- fold change (FC) (Klebsiella pneumoniae): 0
- FIC (Pseudomonas aeruginosa [15]): <0.031
- fold change (FC) (Pseudomonas aeruginosa [16]): 4
- MIC (Pseudomonas aeruginosa [17]): 1 µg/mL
- FIC (Pseudomonas aeruginosa [18]): <0.125
- FIC (Pseudomonas aeruginosa [19]): <0.125
- fractional inhibitory concentration index (FICI) (Pseudomonas aeruginosa [20]): 0.08

Structure (SMILES): CO[C@H]1/C=C/O[C@@]2(C)Oc3c(C)c(O)c4c(O)c(c(/C=N/N5CCN(Cc6cn(CCCCCCCCCCCCO[C@@H]7[C@@H](O[C@H]8O[C@H](CO)[C@@H](O)[C@H](N)[C@H]8O)[C@H](N)C[C@H](N)[C@H]7O[C@H]7O[C@H](CN)[C@@H](O)C[C@H]7N)nn6)CC5)c(O)c4c3C2=O)NC(=O)/C(C)=C\C=C\[C@H](C)[C@H](O)[C@@H](C)[C@@H](O)[C@@H](C)[C@H](OC(C)=O)[C@@H]1C.O=C(O)C(F)(F)F.O=C(O)C(F)(F)F.O=C(O)C(F)(F)F.O=C(O)C(F)(F)F.O=C(O)C(F)(F)F
- fold change (FC) (Acinetobacter baumannii): 0
- fold change (FC) (Pseudomonas aeruginosa [21]): 4
- fold change (FC) (Pseudomonas aeruginosa [22]): 4
- fold change (FC) (Enterobacter cloacae): 0
- MIC (Pseudomonas aeruginosa [23]): 0.5 µg/mL
- fold change (FC) (Pseudomonas aeruginosa [24]): 4
- MIC (Pseudomonas aeruginosa [25]): 0.25 µg/mL
- MIC (Pseudomonas aeruginosa [26]): 4 µg/mL

Structure (SMILES): CO[C@H]1/C=C/O[C@@]2(C)Oc3c(C)c(O)c4c(O)c(c(/C=N/N5CCN(C)CC5)c(O)c4c3C2=O)NC(=O)/C(C)=C\C=C\[C@H](C)[C@H](O)[C@@H](C)[C@@H](O)[C@@H](C)[C@H](OC(C)=O)[C@@H]1C [RIFAMPIN]
- MIC (Pseudomonas aeruginosa [27]): 64 µg/mL
